# Measured values from patent publication US11053234B2 (GlaxoSmithKline Intellectual Property Development Limited, priority 2016, dated 2021).
# Target: T1, haematopoietic prostaglandin D synthase (H-PGDS) (Homo sapiens, UniProt O60760)
# T1 construct: Full length human H-PGDS cDNA (Invitrogen Ultimate ORF 10H13026) was amplified by PCR; 6-His (N); TEV protease cleavage site (N); made in house; host or cells: E. coli BL21 (DE3*), vector pET22b+
# Assay: H-PGDS RapidFire high throughput mass spectrometry assay (conversion of PGH2 to PGD2)
# Assay type: biochemical
# Conditions: 10 nM H-PGDS, PGH2 formed in situ by COX-2 from arachidonic acid; read-out: Potency Range (mean pIC50) (converted)
# How it was run: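 RapidFire SPE–MS read-out calculated percent conversion from relative PGD2 and PGF2α (substrate surrogate) levels. Recombinant full-length human H-PGDS (His-tag, E. coli) turned over PGH2, produced in situ at ˜10 μM by human COX-2 (FLAG-tag, Sf9 cells) acting on arachidonic acid.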
# T1 sequence (O60760 whole entry): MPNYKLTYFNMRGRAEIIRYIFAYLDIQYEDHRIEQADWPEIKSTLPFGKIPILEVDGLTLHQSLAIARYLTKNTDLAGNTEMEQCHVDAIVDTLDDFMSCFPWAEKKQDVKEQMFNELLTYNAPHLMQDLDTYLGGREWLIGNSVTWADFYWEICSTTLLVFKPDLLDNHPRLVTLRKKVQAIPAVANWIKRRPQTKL
row,Compound,IC50
1,"CC(C)(O)[C@H]1CC[C@H](NC(=S)N2CC(Oc3cccc4scnc34)C2)CC1 [Example 95, 3-(Benzo[d]thiazol-4-yloxy)-N-((trans)-4-(2-hydroxypropan-2-yl)cyclohexyl) azetidine-1-carbothioamide]",10 to 79.4 nM
2,"O=C(N[C@H]1CC[C@H](C(O)C2CC2)CC1)[C@H]1C[C@H](Oc2cc(F)ccc2OC(F)F)C1 (mixture of isomers) [Example 27, Racemic (trans)-N-((trans)-4-(Cyclopropyl(hydroxy)methyl)cyclohexyl)-3-(2-(difluoromethoxy)-5-fluorophenoxy)cyclobutanecarboxamide]",10 to 79.4 nM
3,CC(C)c1nnc(NC(=O)[C@H]2C[C@H](Oc3cccc4cccnc34)C2)s1 [Example 198],10 to 79.4 nM
4,"CCOC(=O)Cc1csc(NC(=O)[C@H]2C[C@H](Oc3cccc4ccoc34)C2)n1 [Example 262, Ethyl 2-(2-((trans)-3-(benzofuran-7-yloxy)cyclobutanecarboxamido)thiazol-4-yl)acetate]",10 to 79.4 nM
5,"Cc1cnc(N2CC(NC(=O)[C@H]3C[C@H](Oc4cccc5scnc45)C3)C2)nc1 [Example 39, (trans)-3-(Benzo[d]thiazol-4-yloxy)-N-(1-(5-methylpyrimidin-2-yl)azetidin-3-yl)cyclobutanecarboxamide]",10 to 79.4 nM
6,"CC(C)(O)c1csc(NC(=O)N2CC(Oc3cccc4scnc34)C2)n1 [Example 56, 3-(Benzo[d]thiazol-4-yloxy)-N-(4-(2-hydroxypropan-2-yl)thiazol-2-yl)azetidine-1-carboxamide]",100 to 1000 nM
7,"O=C(NC1CN(c2ccccn2)C1)N1CC(Oc2cc(F)cc3scnc23)C1 [Example 132, 3-((6-Fluorobenzo[d]thiazol-4-yl)oxy)-N-(1-(pyridin-2-yl)azetidin-3-yl)azetidine-1-carboxamide]",10 to 79.4 nM
8,"O=C(Nc1nc(COC(=O)[C@H]2C[C@H](Oc3cc(F)ccc3OC(F)F)C2)cs1)[C@H]1C[C@H](Oc2cc(F)ccc2OC(F)F)C1 [Example 13, (trans)-(2-((trans)-3-(2-(Difluoromethoxy)-5-fluorophenoxy)cyclobutanecarboxamido)thiazol-4-yl)methyl 3-(2-(difluoromethoxy)-5-fluorophenoxy)cyclobutanecarboxylate]",100 to 1000 nM
9,"CS(=O)(=O)N1CCC(NC(=O)[C@H]2C[C@H](Oc3cccc4cccnc34)C2)CC1 [Example 219, (trans)-N-(1-(Methylsulfonyl)piperidin-4-yl)-3-(quinolin-8-yloxy)cyclobutanecarboxamide]",100 to 1000 nM
10,"O=C(N[C@H]1CC[C@H](OCC(O)C2CC2)CC1)[C@H]1C[C@H](Oc2cc(F)ccc2OC(F)F)C1 (mixture of isomers) [Example 9, Racemic (trans)-N-((trans)-4-(2-Cyclopropyl-2-hydroxyethoxy)cyclohexyl)-3-(2-(difluoromethoxy)-5-fluorophenoxy)cyclobutanecarboxamide]",10 to 79.4 nM
11,"CC(C)(C)c1nnc(NC(=O)[C@H]2C[C@H](Oc3cccc4cccnc34)C2)o1 [Example 179, (trans)-N-(5-(tert-Butyl)-1,3,4-oxadiazol-2-yl)-3-(quinolin-8-yloxy)cyclobutanecarboxamide]",10 to 79.4 nM
12,"CC(C)(O)[C@H]1C[C@H](NC(=O)[C@H]2C[C@H](Oc3cccc4cccnc34)C2)C1 [Example 223, (trans)-N-((trans)-3-(2-Hydroxypropan-2-yl)cyclobutyl)-3-(quinolin-8-yloxy)cyclobutanecarboxamide]",100 to 1000 nM
13,"O=C(Nc1nc(C2CC2)co1)[C@H]1C[C@H](Oc2cccc3cccnc23)C1 [Example 178, (trans)-N-(4-Cyclopropyloxazol-2-yl)-3-(quinolin-8-yloxy)cyclobutanecarboxamide]",10 to 79.4 nM
14,"C[C@]1(O)CC[C@H](NC(=O)N2CC(Oc3cccc4scnc34)C2)CC1 [Example 105, 3-(Benzo[d]thiazol-4-yloxy)-N-((trans)-4-hydroxy-4-methylcyclohexyl)azetidine-1-carboxamide]",100 to 1000 nM
15,"CC(=O)N1CCCC(NC(=O)N2CC(Oc3cccc4scnc34)C2)C1 (racemic) [Example 92, Racemic N-(1-Acetylpiperidin-3-yl)-3-(benzo[d]thiazol-4-yloxy)azetidine-1-carboxamide]",100 to 1000 nM
16,"Cc1nnc(NC(=O)[C@H]2C[C@H](Oc3cccc4scnc34)C2)o1 [Example 79, (trans)-3-(Benzo[d]thiazol-4-yloxy)-N-(5-methyl-1,3,4-oxadiazol-2-yl)cyclobutanecarboxamide]",100 to 1000 nM
17,"CC(C)(O)C12CC(NC(=O)[C@H]3C[C@H](Oc4cccc5scnc45)C3)(C1)C2 [Example 318, (trans)-3-(Benzo[d]thiazol-4-yloxy)-N-(3-(2-hydroxypropan-2-yl)bicyclo[1.1.1]pentan-1-yl)cyclobutane-1-carboxamide]",10 to 79.4 nM
18,"O=C(Nc1ncco1)[C@H]1C[C@H](Oc2cccc3cccnc23)C1 [Example 208, (trans)-N-(Oxazol-2-yl)-3-(quinolin-8-yloxy)cyclobutanecarboxamide]",100 to 1000 nM
19,"CC(C)(O)[C@H]1CC[C@H](NC(=O)[C@H]2C[C@H](Oc3cccc4ccoc34)C2)CC1 [Example 267, (trans)-3-(Benzofuran-7-yloxy)-N-((trans)-4-(2-hydroxypropan-2-yl)cyclohexyl)cyclobutanecarboxamide]",10 to 79.4 nM
20,O=C(Nc1ccn[nH]1)[C@H]1C[C@H](Oc2cccc3scnc23)C1 [Example 301],100 to 1000 nM
21,"CC(C)(O)[C@H]1CC[C@H](NC(=O)[C@H]2C[C@H](Oc3cc(Cl)ccc3Cl)C2)CC1 [Example 257, (trans)-3-(2,5-Dichlorophenoxy)-N-((trans)-4-(2-hydroxypropan-2-yl)cyclohexyl)cyclobutanecarboxamide]",100 to 1000 nM
22,"CC(C)(O)[C@H]1CC[C@H](NC(=O)[C@H]2C[C@H](Oc3cccc4cncnc34)C2)CC1 [Example 296, (trans)-N-((trans)-4-(2-Hydroxypropan-2-yl)cyclohexyl)-3-(quinazolin-8-yloxy)cyclobutanecarboxamide]",100 to 1000 nM
23,"Cc1cnc(NC(=O)[C@H]2C[C@H](Oc3cccc4cccnc34)C2)o1 [Example 177, (trans)-N-(5-Methyloxazol-2-yl)-3-(quinolin-8-yloxy)cyclobutanecarboxamide]",10 to 79.4 nM
24,"CCOCCNC(=O)c1ccc(N2CC(NC(=O)[C@H]3C[C@H](Oc4cc(F)cc5scnc45)C3)C2)nn1 [Example 234, N-(2-Ethoxyethyl)-6-(3-((trans)-3-((6-fluorobenzo[d]thiazol-4-yl)oxy)cyclobutanecarboxamido)azetidin-1-yl)pyridazine-3-carboxamide]",10 to 79.4 nM
25,"O=C(NC1CCN(C(=O)OCc2ccccc2)CC1)N1CC(Oc2cccc3scnc23)C1 [Example 89, Benzyl 4-(3-(benzo[d]thiazol-4-yloxy)azetidine-1-carboxamido)piperidine-1-carboxylate]",10 to 79.4 nM
26,"CC(C)(O)[C@H]1CC[C@H](NC(=O)[C@H]2C[C@H](Oc3ccccc3OC(F)(F)F)C2)CC1 [Example 259, (trans)-N-((trans)-4-(2-Hydroxypropan-2-yl)cyclohexyl)-3-(2-(trifluoromethoxy)phenoxy)cyclobutanecarboxamide]",100 to 1000 nM
27,"O=C(NC1CN(c2ncccn2)C1)N1CC(Oc2cc(F)cc3scnc23)C1 [Example 129, 3-((6-Fluorobenzo[d]thiazol-4-yl)oxy)-N-(1-(pyrimidin-2-yl)azetidin-3-yl)azetidine-1-carboxamide]",10 to 79.4 nM
